Values of other authors as cited in US4833125A, “Method of increasing bone mass” (The General Hospital Corporation, priority 1987, dated 1989).

Test system: osteoporosis in humans
Conditions: hPTH (1-34) alone, Reeve et al. 1980

hPTH (1-34): fragment of human parathyroid hormone, first thirty-four amino acid residues, given alone in cited trial (SVSEIQLMHNLGKHLNSMERVEWLRKKLQDVHNF; Parathyroid hormone; UniProt P01270 32-65, looked up, fragment)
axial trabecular bone: considerable increase | calcium retention, and hence total bone mass: improved in only about half of these patients
